From patent US7342011B2, “Rifamycin analogs and uses thereof” (priority 2003, dated 2008)
Converted amounts (≈) assume the structure as drawn.

Key:
Type in all cases: cell-based
E. coli = test: MIC assay, E. coli
S. pneumo. = test: MIC assay, S. pneumo.
S. aureus = test: MIC assay, S. aureus
H. flu = test: MIC assay, H. flu
E. faecalis = test: MIC assay, E. faecalis

SMILES	MIC (μg/mL) E. coli (E. coli)	MIC (μg/mL) S. pneumo. (S. pneumo.)	MIC (μg/mL) S. aureus (S. aureus)	MIC (μg/mL) H. flu (H. flu)	MIC (μg/mL) E. faecalis (E. faecalis)
CCOC(=O)NC1CCN(c2cc(O)c3nc4c5c6c7c(C)c(O)c5c(=O)c(c-4oc3c2)NC(=O)/C(C)=C\C=C\[C@H](C)[C@H](O)[C@@H](C)[C@@H](O)[C@@H](C)[C@H](OC(C)=O)[C@H](C)[C@@H](OC)/C=C/O[C@@](C)(O7)C6=O)CC1 [Compound 1]	>8 µg/mL	0.00025 µg/mL (≈ 0.000257 µM)	0.008 µg/mL (≈ 0.00824 µM)	2 µg/mL (≈ 2.06 µM)	2 µg/mL (≈ 2.06 µM)
CCOC(=O)NC1CCN(c2cc(O)c3nc4c5c6c7c(C)c(O)c5c(=O)c(c-4oc3c2)NC(=O)C(C)=CC=CC(C)C(O)C(C)C(O)C(C)C(O)C(C)C(OC)C=COC(C)(O7)C6=O)CC1 (stereo not shown) [Compound 3, 25-O-deacetyl-3′-hydroxy-5′-(4-ethylcarbamyl-1-piperidinyl)benzoxazinorifamycin]	4 µg/mL (≈ 4.31 µM)	0.0005 µg/mL (≈ 0.000538 µM)	0.03 µg/mL (≈ 0.0323 µM)	0.25 µg/mL (≈ 0.269 µM)	0.12 µg/mL (≈ 0.129 µM)
CCCNC(=O)NC1CCN(c2cc(O)c3nc4c5c6c7c(C)c(O)c5c(=O)c(c-4oc3c2)NC(=O)C(C)=CC=CC(C)C(O)C(C)C(O)C(C)C(O)C(C)C(OC)C=COC(C)(O7)C6=O)CC1 (stereo not shown) [Compound 26, 25-O-deacetyl-3′-hydroxy-5′-[4-propyluryl-1-piperidinyl]benzoxazinorifamycin]	>8 µg/mL	0.00012 µg/mL (≈ 0.000127 µM)	0.008 µg/mL (≈ 0.00849 µM)	1 µg/mL (≈ 1.06 µM)	2 µg/mL (≈ 2.12 µM)
COC1C=COC2(C)Oc3c(C)c(O)c4c(=O)c(c5oc6cc(N7CCC(NS(C)(=O)=O)CC7)cc(O)c6nc-5c4c3C2=O)NC(=O)C(C)=CC=CC(C)C(O)C(C)C(O)C(C)C(O)C1C (stereo not shown) [Compound 27]	>8 µg/mL	0.001 µg/mL (≈ 0.00107 µM)	0.015 µg/mL (≈ 0.016 µM)	0.12 µg/mL (≈ 0.128 µM)	1 µg/mL (≈ 1.07 µM)
COC1C=COC2(C)Oc3c(C)c(O)c4c(=O)c(c5oc6cc(N7CCC(NC(=O)OC(C)C)CC7)cc(O)c6nc-5c4c3C2=O)NC(=O)C(C)=CC=CC(C)C(O)C(C)C(O)C(C)C(O)C1C (stereo not shown) [Compound 29, 25-O-deacetyl-3′-hydroxy-5′-[4-isopropylcarbamyl-1-piperidinyl]benzoxazinorifamycin]	>8 µg/mL	0.00012 µg/mL (≈ 0.000127 µM)	0.008 µg/mL (≈ 0.00848 µM)	1 µg/mL (≈ 1.06 µM)	2 µg/mL (≈ 2.12 µM)
CCCS(=O)(=O)NC1CCN(c2cc(O)c3nc4c5c6c7c(C)c(O)c5c(=O)c(c-4oc3c2)NC(=O)/C(C)=C\C=C\[C@H](C)[C@H](O)[C@@H](C)[C@@H](O)[C@@H](C)[C@H](OC(C)=O)[C@H](C)[C@@H](OC)/C=C/O[C@@](C)(O7)C6=O)CC1 [Compound 35]	8 µg/mL (≈ 7.96 µM)	0.00025 µg/mL (≈ 0.000249 µM)	0.015 µg/mL (≈ 0.0149 µM)	0.5 µg/mL (≈ 0.497 µM)	4 µg/mL (≈ 3.98 µM)
CCNC(=O)NC1CCN(c2cc(O)c3nc4c5c6c7c(C)c(O)c5c(=O)c(c-4oc3c2)NC(=O)C(C)=CC=CC(C)C(O)C(C)C(O)C(C)C(O)C(C)C(OC)C=COC(C)(O7)C6=O)CC1 (stereo not shown) [Compound 37, 25-O-deacetyl-3′-hydroxy-5′-[4-ethyluryl-1-piperidinyl]benzoxazinorifamycin]	>8 µg/mL				
COC1C=COC2(C)Oc3c(C)c(O)c4c(=O)c(c5oc6cc(N7CCC(NS(=O)(=O)C(F)(F)F)CC7)cc(O)c6nc-5c4c3C2=O)NC(=O)C(C)=CC=CC(C)C(O)C(C)C(O)C(C)C(O)C1C (stereo not shown) [Compound 38]	>8 µg/mL				
CO[C@H]1/C=C/O[C@@]2(C)Oc3c(C)c(O)c4c(=O)c(c5oc6cc(N7CCC(N)CC7)cc(O)c6nc-5c4c3C2=O)NC(=O)/C(C)=C\C=C\[C@H](C)[C@H](O)[C@@H](C)[C@@H](O)[C@@H](C)[C@H](O)[C@@H]1C [Compound 39, 25-O-deacetyl-3′-hydroxy-5′-[4-amino-1-piperidinyl]benzoxazinorifamycin]	>8 µg/mL	0.001 µg/mL (≈ 0.00117 µM)	0.03 µg/mL (≈ 0.035 µM)	0.25 µg/mL (≈ 0.292 µM)	2 µg/mL (≈ 2.33 µM)
CCOC(=O)N1CCC[C@@H]2CN(c3cc(O)c4nc5c6c7c8c(C)c(O)c6c(=O)c(c-5oc4c3)NC(=O)/C(C)=C\C=C\[C@H](C)[C@H](O)[C@@H](C)[C@@H](O)[C@@H](C)[C@H](OC(C)=O)[C@H](C)[C@@H](OC)/C=C/O[C@@](C)(O8)C7=O)C[C@@H]21 [Compound 40, 3′-hydroxy-5′-[1-ethylcarbamyl-(4aR,7aR)-octahydro-6H-pyrrolo[3,4-b]pyridin-6-yl]benzoxazinorifamycin]	>8 µg/mL	0.008 µg/mL (≈ 0.00802 µM)	0.06 µg/mL (≈ 0.0602 µM)	0.5 µg/mL (≈ 0.501 µM)	1 µg/mL (≈ 1 µM)
COCCOC(=O)NC1CCN(c2cc(O)c3nc4c5c6c7c(C)c(O)c5c(=O)c(c-4oc3c2)NC(=O)/C(C)=C\C=C\[C@H](C)[C@H](O)[C@@H](C)[C@@H](O)[C@@H](C)[C@H](OC(C)=O)[C@H](C)[C@@H](OC)/C=C/O[C@@](C)(O7)C6=O)CC1 [Compound 41, 3′-hydroxy-5′-[4-methoxyethylcarbamyl-1-piperidinyl]benzoxazinorifamycin]	>8 µg/mL	0.0005 µg/mL (≈ 0.000499 µM)	0.25 µg/mL (≈ 0.25 µM)	2 µg/mL (≈ 2 µM)	>8 µg/mL
CCOC(=O)N1CCCC2CN(c3cc(O)c4nc5c6c7c8c(C)c(O)c6c(=O)c(c-5oc4c3)NC(=O)C(C)=CC=CC(C)C(O)C(C)C(O)C(C)C(O)C(C)C(OC)C=COC(C)(O8)C7=O)CC21 (stereo not shown) [Compound 42]	8 µg/mL (≈ 8.38 µM)	0.00012 µg/mL (≈ 0.000126 µM)	0.008 µg/mL (≈ 0.00838 µM)	0.5 µg/mL (≈ 0.524 µM)	2 µg/mL (≈ 2.09 µM)
COC1C=COC2(C)Oc3c(C)c(O)c4c(=O)c(c5oc6cc(N7CCC(NC(C)=O)CC7)cc(O)c6nc-5c4c3C2=O)NC(=O)C(C)=CC=CC(C)C(O)C(C)C(O)C(C)C(O)C1C (stereo not shown) [Compound 43, 25-O-deacetyl-3′-hydroxy-5′-[4-acetamide-1-piperidinyl]benzoxazinorifamycin]	>8 µg/mL				
CO[C@H]1/C=C/O[C@@]2(C)Oc3c(C)c(O)c4c(=O)c(c5oc6cc(N7CCC(NC(C)=O)CC7)cc(O)c6nc-5c4c3C2=O)NC(=O)/C(C)=C\C=C\[C@H](C)[C@H](O)[C@@H](C)[C@@H](O)[C@@H](C)[C@H](OC(C)=O)[C@@H]1C [Compound 44]	>8 µg/mL	0.008 µg/mL (≈ 0.0085 µM)	0.06 µg/mL (≈ 0.0638 µM)	0.25 µg/mL (≈ 0.266 µM)	2 µg/mL (≈ 2.13 µM)
COC1C=COC2(C)Oc3c(C)c(O)c4c(=O)c(c5oc6cc(N7CCC(NC(=O)OC(C)(C)C)CC7)cc(O)c6nc-5c4c3C2=O)NC(=O)C(C)=CC=CC(C)C(O)C(C)C(O)C(C)C(O)C1C (stereo not shown) [Compound 52, 25-O-deacetyl-3′-hydroxy-5′-[4-(2,2-dimethylethyl)carbamyl-1-piperidinyl]benzoxazinorifamycin]	>8 µg/mL				
COC1C=COC2(C)Oc3c(C)c(O)c4c(=O)c(c5oc6cc(N7CC8C(C7)C8N(C)C)cc(O)c6nc-5c4c3C2=O)NC(=O)C(C)=CC=CC(C)C(O)C(C)C(O)C(C)C(OC(C)=O)C1C [Compound 53, 3′-hydroxy-5′-[6-N,N-dimethylamino-(1R,5S)-3-azabicyclo[3.1.0]hex-3-yl]benzoxazinorifamycin]	>8 µg/mL				
COC1C=COC2(C)Oc3c(C)c(O)c4c(=O)c(c5oc6cc(N7CC8C(C7)C8N(C)C)cc(O)c6nc-5c4c3C2=O)NC(=O)C(C)=CC=CC(C)C(O)C(C)C(O)C(C)C(O)C1C [Compound 54, 3′-hydroxy-5′-[6-N,N-dimethylamino-(1R,5S)-3-azabicyclo[3.1.0]hex-3-yl]benzoxazinorifamycin]	>8 µg/mL				
COC1C=COC2(C)Oc3c(C)c(O)c4c(=O)c(c5oc6cc(N7CCC(CNC(C)=O)CC7)cc(O)c6nc-5c4c3C2=O)NC(=O)C(C)=CC=CC(C)C(O)C(C)C(O)C(C)C(O)C1C (stereo not shown) [Compound 56, 25-O-deacetyl-3′-hydroxy-5′-[4-acetylaminomethyl-1-piperidinyl]benzoxazinorifamycin]	8 µg/mL (≈ 8.76 µM)				
CCOC(=O)NCC1CCN(c2cc(O)c3nc4c5c6c7c(C)c(O)c5c(=O)c(c-4oc3c2)NC(=O)C(C)=CC=CC(C)C(O)C(C)C(O)C(C)C(O)C(C)C(OC)C=COC(C)(O7)C6=O)CC1 (stereo not shown) [Compound 60, 25-O-deacetyl-3′-hydroxy-5′-[4-ethylcarbamylmethyl-1-piperidinyl]benzoxazinorifamycin]	>8 µg/mL				
COC1C=COC2(C)Oc3c(C)c(O)c4c(=O)c(c5oc6cc(N7CCC(c8ccccc8)CC7)cc(O)c6nc-5c4c3C2=O)NC(=O)C(C)=CC=CC(C)C(O)C(C)C(O)C(C)C(O)C1C (stereo not shown) [Compound 62, 25-O-deacetyl-3′-hydroxy-5′-[4-phenyl-1-piperidinyl]benzoxazinorifamycin]	>8 µg/mL				
COCCOC(=O)NC1CCN(c2cc(O)c3nc4c5c6c7c(C)c(O)c5c(=O)c(c-4oc3c2)NC(=O)C(C)=CC=CC(C)C(O)C(C)C(O)C(C)C(O)C(C)C(OC)C=COC(C)(O7)C6=O)CC1 (stereo not shown) [Compound 63, 25-O-deacetyl-3′-hydroxy-5′-[4-methoxyethylcarbamyl-1-piperidinyl]benzoxazinorifamycin]	8 µg/mL (≈ 8.34 µM)				
CCCS(=O)(=O)NC1CCN(c2cc(O)c3nc4c5c6c7c(C)c(O)c5c(=O)c(c-4oc3c2)NC(=O)C(C)=CC=CC(C)C(O)C(C)C(O)C(C)C(O)C(C)C(OC)C=COC(C)(O7)C6=O)CC1 (stereo not shown) [Compound 67]	>8 µg/mL				
COC1C=COC2(C)Oc3c(C)c(O)c4c(=O)c(c5oc6cc(N7CCC(C)(NC(C)=O)CC7)cc(O)c6nc-5c4c3C2=O)NC(=O)C(C)=CC=CC(C)C(O)C(C)C(O)C(C)C(O)C1C (stereo not shown) [Compound 74, 25-O-deacetyl-3′-hydroxy-5′-[4-methyl-4-acetylamino-1-piperidinyl]benzoxazinorifamycin]	>8 µg/mL				
